This passage reports IC50 results from patent publication US20230301981A1, “TLR7/8 ANTAGONISTS AND USES THEREOF” (Merck Patent GmbH, priority 2020, published 2023).

Each structure is given as a SMILES string. Some results are limits rather than exact numbers.

Type in all cases: cell-based
For assay [1], the target named is T1, TLR7 (Homo sapiens, UniProt Q9NYK1).
T1 sequence (Q9NYK1 27-1049): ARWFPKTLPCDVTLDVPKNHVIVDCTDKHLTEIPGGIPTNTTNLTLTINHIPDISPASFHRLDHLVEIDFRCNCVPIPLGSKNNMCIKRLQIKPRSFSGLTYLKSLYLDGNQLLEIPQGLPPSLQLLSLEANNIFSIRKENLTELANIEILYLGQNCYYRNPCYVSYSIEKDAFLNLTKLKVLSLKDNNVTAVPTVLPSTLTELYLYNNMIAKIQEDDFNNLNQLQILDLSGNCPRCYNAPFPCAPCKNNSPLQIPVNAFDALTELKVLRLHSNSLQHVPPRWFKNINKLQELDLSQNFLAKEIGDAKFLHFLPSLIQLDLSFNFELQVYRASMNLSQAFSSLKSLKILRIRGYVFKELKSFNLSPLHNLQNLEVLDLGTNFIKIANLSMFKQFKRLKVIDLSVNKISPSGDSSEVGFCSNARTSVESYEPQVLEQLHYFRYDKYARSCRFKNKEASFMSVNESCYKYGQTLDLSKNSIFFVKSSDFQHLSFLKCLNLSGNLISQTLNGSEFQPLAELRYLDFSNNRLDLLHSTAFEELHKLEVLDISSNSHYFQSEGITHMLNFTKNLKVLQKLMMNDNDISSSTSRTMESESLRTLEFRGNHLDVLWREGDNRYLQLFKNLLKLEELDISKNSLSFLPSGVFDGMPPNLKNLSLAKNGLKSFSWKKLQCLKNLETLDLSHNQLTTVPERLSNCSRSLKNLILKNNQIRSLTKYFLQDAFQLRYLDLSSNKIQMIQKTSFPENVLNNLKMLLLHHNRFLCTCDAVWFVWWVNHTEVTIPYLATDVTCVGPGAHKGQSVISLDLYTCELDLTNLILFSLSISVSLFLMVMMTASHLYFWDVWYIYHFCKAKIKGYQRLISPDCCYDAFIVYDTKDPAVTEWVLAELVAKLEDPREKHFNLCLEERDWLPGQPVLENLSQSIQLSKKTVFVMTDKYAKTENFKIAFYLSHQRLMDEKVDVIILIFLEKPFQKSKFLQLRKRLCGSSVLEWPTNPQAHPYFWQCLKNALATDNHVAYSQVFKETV
Put plainly: HEK293 TLR7/NFKb reporter cell assay with R848 agonist. Further details: expressed in transfected cells; host or cells: HEK293. The procedure: Into 384 CulturePlates (Corning 3707) was placed 5000 c/w of HEK293 TLR7/NFKb reporter cells in 30 µL DMEM without phenol red and 10% i.a. FCS and 2 mM L-glutamine. The cells were incubated for 24 h at 37° C., 10% carbon dioxide and 90% relative humidity. 3 µL of controls, standards, and compounds were dispensed to wells, incubated for 30 min then 3 µL of R848 agonist (Resiquimod) in 20 mM HEPES buffer was added. After incubation for 5 hours, it was allowed to stand at room temperature for 15 min. 10 µL of Steady-Glo substrate reagent was added and assay plates were shaken for 5 min at 1500 rpm. The assay plate was allowed to sit for 30 min at room temperature and then read on an EnVision plate reader.

Assay [2] deals with T1, TLR7. Put plainly: Human whole blood assay, TLR7-specific agonist stimulation, IL-6 by AlphaLISA. Further details: Human whole blood from healthy donors was drawn into EDTA Vacutainer tubes; endogenous in cells; host or cells: human whole blood (healthy donors). The conditions noted are these: TLR7-specific agonist 3 µM, IL-6 readout, read-out: IC50 TLR7 (IL6 READOUT) HUMAN WHOLE BLOOD (N=2). As for the experimental part: (§1) Human whole blood from healthy donors was drawn into EDTA Vacutainer tubes and the experiment started within 2 hr of draw. Four parts blood was diluted with 1 part PBS. 10 mM compounds stock solutions were serially diluted 1:3 eleven times in DMSO. Each serial dilution was further diluted by transferring 3 µl to 100 µl RPMI. For the stimulation only and no stimulation controls, 3 µl 100% DMSO was transferred to 100 µl RPMI. Then, 5 µl of each of these dilutions were transferred to 96-well tissue culture grade U-bottom plate in triplicate for each ligand and each donor. Final inhibitor concentrations were 10, 3.3, 1.1, 0.37, 0.12, 0.04, 0.014, 0.0046, 0.0015, 0.00051, 0.00017, 0.00006 µM. No inhibitor (stimulation only) controls were included in triplicate for each donor. Diluted blood was dispensed on top of inhibitor dilutions at 150 µl/well. Plates were incubated at 37° C. 5% CO2 for 30 min. For TLR7 stimulation, 10 mM stock of a TLR7-specific small molecule agonist in DMSO was diluted to 90 µM in RPMI and 5 µl were added to each inhibitor dilution for each donor. Final concentration was 3 µM. For TLR8 stimulation, 10 mM stock of a TLR8-specific small molecule agonist in DMSO was diluted to 15 µM in RPMI and 5 µl were added to each inhibitor dilution for each donor. Final concentration was 0.5 µM. No stimulation controls were included in triplicate for each donor. Plates were incubated at 37° C. 5% CO2 overnight. Next day, plasma was collected and IL-6 was measured by AlphaLISA (PerkinElmer AL223 according to manufacturer’s protocol.
In general terms: In Alpha technology, singlet oxygen from a donor bead excites a nearby acceptor bead.

Another assay addresses T2, TLR8 (Homo sapiens, UniProt Q9NR97).
T2 construct: Human whole blood from healthy donors was drawn into EDTA Vacutainer tubes; endogenous in cells; host or cells: human whole blood (healthy donors)
T2 sequence (Q9NR97 27-1041): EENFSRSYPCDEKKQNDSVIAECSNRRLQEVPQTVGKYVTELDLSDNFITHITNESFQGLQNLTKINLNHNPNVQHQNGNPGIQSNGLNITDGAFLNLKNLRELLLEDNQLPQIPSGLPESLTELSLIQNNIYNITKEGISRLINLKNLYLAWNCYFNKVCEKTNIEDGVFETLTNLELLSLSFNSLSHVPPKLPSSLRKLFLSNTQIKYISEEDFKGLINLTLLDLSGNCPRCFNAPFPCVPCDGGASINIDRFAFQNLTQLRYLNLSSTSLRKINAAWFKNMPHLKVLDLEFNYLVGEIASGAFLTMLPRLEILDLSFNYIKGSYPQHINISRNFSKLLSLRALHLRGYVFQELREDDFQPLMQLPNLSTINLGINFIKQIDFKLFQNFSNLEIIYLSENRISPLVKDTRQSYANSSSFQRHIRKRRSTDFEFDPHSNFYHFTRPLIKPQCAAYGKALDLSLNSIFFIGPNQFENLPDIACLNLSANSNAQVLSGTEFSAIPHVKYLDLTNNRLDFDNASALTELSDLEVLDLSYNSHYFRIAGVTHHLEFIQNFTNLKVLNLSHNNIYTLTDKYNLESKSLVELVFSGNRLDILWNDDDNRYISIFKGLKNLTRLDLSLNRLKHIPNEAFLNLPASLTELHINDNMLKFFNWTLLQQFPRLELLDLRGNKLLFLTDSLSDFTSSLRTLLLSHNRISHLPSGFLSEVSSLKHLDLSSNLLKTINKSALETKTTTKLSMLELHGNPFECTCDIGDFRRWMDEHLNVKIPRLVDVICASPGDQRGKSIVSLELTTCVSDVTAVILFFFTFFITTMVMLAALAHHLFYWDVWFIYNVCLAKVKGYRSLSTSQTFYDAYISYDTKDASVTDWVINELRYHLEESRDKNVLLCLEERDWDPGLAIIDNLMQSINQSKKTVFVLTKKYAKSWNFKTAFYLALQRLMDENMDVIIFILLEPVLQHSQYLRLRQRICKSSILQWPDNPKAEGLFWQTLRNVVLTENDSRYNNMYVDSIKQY
Put plainly: Human whole blood assay, TLR8-specific agonist stimulation, IL-6 by AlphaLISA. As to conditions: TLR8-specific agonist 0.5 µM, IL-6 readout, read-out: IC50 TLR8 (IL6 READOUT) HUMAN WHOLE BLOOD (N=2). As for the experimental part: as §1

The mark [3] stands for this setting: HEK293 TLR7/NFKb reporter cells, R848 agonist, read-out: IC50 TLR7 (IL6 READOUT) HEK TRANSFECTED
Setting [4] is: Example 4 results table, assay/readout not specified, read-out: Potency.

With `CCN(CC)Cc1cc(Nc2ccnc3cc(Cl)ccc23)ccc1O` [AMODIAQUINE], the IC50 on TLR7 [1] (setting [3]) was above 10000 nM.

Consider `CCN(CC)CCCC(C)Nc1ccnc2cc(Cl)ccc12` (stereo not shown) [CHLOROQUINE, Chloroquine], for which the IC50 at TLR7 [2] turned out to be 2280 nM; on TLR8 it was 53.3 µM. For `CCN(CC)Cc1cc(Nc2ccnc3cc(Cl)ccc23)cc(CN(CC)CC)c1O` [Compound 2, CYCLOQUINE], the IC50 on TLR7 [1] (setting [4]) was below 1000 nM; on TLR7 [1] (setting [3]), 1390 nM.

Take `Oc1c(CN2CCCC2)cc(Nc2ccnc3cc(Cl)ccc23)cc1CN1CCCC1` [Compound 3, BISPYROQUINE]: the IC50 on TLR7 [1] (setting [4]) was below 1000 nM; at TLR7 [1] (setting [3]), 4590 nM.
